Values of other authors, collected in patent US20030203004A1, “Compositions comprising short and long chain fatty acids and methods of their use for the management of body weight” (priority 2002, published 2003).

Key:
[1] = rats; jejunally infused neat, 0.2 mL/hr for seven hours
[2] = rats
[3] = humans; sodium propionate included in bread; attributed to delayed gastric emptying rate

CCCCC/C=C\C/C=C\CCCCCCCC(=O)O [linoleic acid]
total daily caloric intake [1]: significantly reduce

CCCCCCCC/C=C\CCCCCCCC(=O)O [oleic acid]
total daily caloric intake [1]: significantly reduce

CCC(=O)[O-].[Na+] [sodium propionate]
effect on gastric emptying [2]: no effect
satiety [3]: induction of satiety
